# Patent US9695155B2, “Herbicidal substituted pyrimidinyloxy benzene compounds” (E. I. DU PONT DE NEMOURS AND COMPANY, priority 2013, dated 2017)
# How the values were obtained:
# giant foxtail [1] = assay: Test A preemergence; assay type: in vivo, Setaria faberii; conditions: Setaria faberi, pre-emergence, 240 h
# Method in brief: (§1)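 Pre- and postemergence greenhouse screen. Soil: loam + sand. Spray carrier: solvent mixture, non-phytotoxic, with surfactant. Post timing at 1–2 leaves, height 2–10 cm. Readout: visual injury on a 0–100 scale roughly 10 days after application, untreated plants as reference.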
# large (Lg) crabgrass [2] = assay: Test A postemergence; assay type: in vivo, Digitaria sanguinalis; conditions: Digitaria sanguinalis, post-emergence, 240 h
# Method in brief: as §1
# galium = assay: Test C preemergence; assay type: in vivo, Galium aparine; conditions: Galium, pre-emergence
# Method in brief: (§2)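 Whole-plant greenhouse test with surfactant-containing solvent formulation, applied preemergence to sown loam–sand pots or postemergence to 2–18 cm plants. Scored by eye 13 to 15 days on, 0–100 scale.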
# large (Lg) crabgrass [3] = assay: Test C preemergence; assay type: in vivo, Digitaria sanguinalis; conditions: Digitaria sanguinalis, pre-emergence
# Method in brief: as §2
# giant foxtail [4] = assay: Test C preemergence; assay type: in vivo, Setaria faberii; conditions: Setaria faberi, pre-emergence
# Method in brief: as §2
# johnsongrass [5] = assay: Test C preemergence; assay type: in vivo, Sorghum halepense; conditions: Sorghum halepense, pre-emergence
# Method in brief: as §2
# lambsquarters = assay: Test C preemergence; assay type: in vivo, Chenopodium album; conditions: Chenopodium album, pre-emergence
# Method in brief: as §2
# yellow nutsedge [6] = assay: Test C preemergence; assay type: in vivo, Cyperus esculentus; conditions: Cyperus, pre-emergence, preemergence, scale 0 (no effect) to 100 (complete control), read-out: Nutsedge, Yellow plant response rating
# Method in brief: as §2
# giant foxtail [7] = assay: Test C postemergence; assay type: in vivo, Setaria faberii; conditions: Setaria faberi, post-emergence
# Method in brief: as §2
# johnsongrass [8] = assay: Test C postemergence; assay type: in vivo, Sorghum halepense; conditions: Sorghum halepense, post-emergence
# Method in brief: as §2
# yellow nutsedge [9] = assay: Test C postemergence; assay type: in vivo, Cyperus esculentus; conditions: Cyperus, post-emergence
# Method in brief: as §2
# soybean = assay: Test C postemergence; assay type: in vivo, Glycine max; conditions: Glycine max, post-emergence
# Method in brief: as §2
# waterhemp = assay: Test C postemergence; assay type: in vivo, Amaranthus rudis; conditions: Amaranthus tuberculatus, post-emergence
# Method in brief: as §2
# chickweed = assay: Test C postemergence; assay type: in vivo, Stellaria media; conditions: Stellaria media, post-emergence
# Method in brief: as §2
compound,measurement,setting,value
"N#Cc1cccc(Oc2ncc(Br)cn2)c1-n1cc(C(F)(F)F)cn1 [Compound 59, 3-[(5-bromo-2-pyrimidinyl)oxy]-2-[4-(trifluoromethyl)-1H-pyrazol-1-yl]benzonitrile]",pest or weed control at 125 g/ha,"giant foxtail [1]; 125 g ai/ha, 0 to 100 scale where 0 is no effect and 100 is complete control, read-out: Plant response rating, Foxtail, Giant",100%
same,pest or weed control at 500 g/ha,"giant foxtail [1]; 500 g ai/ha, 0 to 100 scale, 0 no effect, 100 complete control, approx. 10 days, read-out: Foxtail, Giant plant response rating",100%
same,pest or weed control at 125 g/ha,"large (Lg) crabgrass [2]; 125 g ai/ha, 0 to 100 scale where 0 is no effect and 100 is complete control, read-out: Plant response rating, Crabgrass, Large",100%
same,pest or weed control at 500 g/ha,"large (Lg) crabgrass [2]; 500 g ai/ha, 0 to 100 scale, 0 no effect, 100 complete control, read-out: Plant response rating Crabgrass, Large",100%
same,pest or weed control at 62 g/ha,"galium; 62 g ai/ha, preemergence, scale 0 (no effect) to 100 (complete control), read-out: Galium plant response rating",100%
same,pest or weed control at 125 g/ha,"galium; 125 g ai/ha, preemergence, scale 0 (no effect) to 100 (complete control), read-out: Galium plant response rating",100%
same,pest or weed control at 250 g/ha,"galium; 250 g ai/ha, preemergence, scale 0 (no effect) to 100 (complete control), read-out: Galium plant response rating",100%
same,pest or weed control at 31 g/ha,"galium; Preemergence, 31 g ai/ha, scale 0 to 100, 0 no effect, 100 complete control, read-out: Plant response rating, Galium",100%
same,pest or weed control at 62 g/ha,"large (Lg) crabgrass [3]; 62 g ai/ha, preemergence, scale 0 (no effect) to 100 (complete control), read-out: Crabgrass, Large plant response rating",100%
same,pest or weed control at 125 g/ha,"large (Lg) crabgrass [3]; 125 g ai/ha, preemergence, scale 0 (no effect) to 100 (complete control), read-out: Crabgrass, Large plant response rating",100%
same,pest or weed control at 250 g/ha,"large (Lg) crabgrass [3]; 250 g ai/ha, preemergence, scale 0 (no effect) to 100 (complete control), read-out: Crabgrass, Large plant response rating",100%
same,pest or weed control at 31 g/ha,"large (Lg) crabgrass [3]; Preemergence, 31 g ai/ha, scale 0 to 100, 0 no effect, 100 complete control, read-out: Plant response rating, Crabgrass, Large",100%
same,pest or weed control at 62 g/ha,"giant foxtail [4]; 62 g ai/ha, preemergence, scale 0 (no effect) to 100 (complete control), read-out: Foxtail, Giant plant response rating",98%
same,pest or weed control at 125 g/ha,"giant foxtail [4]; 125 g ai/ha, preemergence, scale 0 (no effect) to 100 (complete control), read-out: Foxtail, Giant plant response rating",100%
same,pest or weed control at 250 g/ha,"giant foxtail [4]; 250 g ai/ha, preemergence, scale 0 (no effect) to 100 (complete control), read-out: Foxtail, Giant plant response rating",100%
same,pest or weed control at 31 g/ha,"giant foxtail [4]; Preemergence, 31 g ai/ha, scale 0 to 100, 0 no effect, 100 complete control, read-out: Plant response rating, Foxtail, Giant",95%
same,pest or weed control at 62 g/ha,"johnsongrass [5]; 62 g ai/ha, preemergence, scale 0 (no effect) to 100 (complete control), read-out: Johnsongrass plant response rating",85%
same,pest or weed control at 125 g/ha,"johnsongrass [5]; 125 g ai/ha, preemergence, scale 0 (no effect) to 100 (complete control), read-out: Johnsongrass plant response rating",98%
same,pest or weed control at 250 g/ha,"johnsongrass [5]; 250 g ai/ha, preemergence, scale 0 (no effect) to 100 (complete control), read-out: Johnsongrass plant response rating",100%
same,pest or weed control at 31 g/ha,"johnsongrass [5]; Preemergence, 31 g ai/ha, scale 0 to 100, 0 no effect, 100 complete control, read-out: Plant response rating, Johnsongrass",60%
same,pest or weed control at 62 g/ha,"lambsquarters; 62 g ai/ha, preemergence, scale 0 (no effect) to 100 (complete control), read-out: Lambsquarters plant response rating",100%
same,pest or weed control at 125 g/ha,"lambsquarters; 125 g ai/ha, preemergence, scale 0 (no effect) to 100 (complete control), read-out: Lambsquarters plant response rating",100%
same,pest or weed control at 250 g/ha,"lambsquarters; 250 g ai/ha, preemergence, scale 0 (no effect) to 100 (complete control), read-out: Lambsquarters plant response rating",100%
same,pest or weed control at 31 g/ha,"lambsquarters; Preemergence, 31 g ai/ha, scale 0 to 100, 0 no effect, 100 complete control, read-out: Plant response rating, Lambsquarters",100%
same,pest or weed control at 62 g/ha,yellow nutsedge [6]; 62 g ai/ha,65%
same,pest or weed control at 125 g/ha,yellow nutsedge [6]; 125 g ai/ha,85%
same,pest or weed control at 250 g/ha,yellow nutsedge [6]; 250 g ai/ha,90%
same,pest or weed control at 125 g/ha,"giant foxtail [7]; 125 g ai/ha, postemergence, read-out: Plant response rating (0 to 100), Foxtail, Giant",45%
same,pest or weed control at 250 g/ha,"giant foxtail [7]; 250 g ai/ha, postemergence, read-out: Plant response rating (0 to 100), Foxtail, Giant",90%
same,pest or weed control at 31 g/ha,"giant foxtail [7]; Postemergence, 31 g ai/ha, scale 0 to 100 (0 no effect, 100 complete control), 13 to 15 days, read-out: Plant response rating, Foxtail, Giant",10%
same,pest or weed control at 62 g/ha,"giant foxtail [7]; Postemergence, 62 g ai/ha, scale 0 to 100 (0 no effect, 100 complete control), read-out: Plant response rating, Foxtail, Giant",45%
same,pest or weed control at 125 g/ha,"johnsongrass [8]; 125 g ai/ha, postemergence, read-out: Plant response rating (0 to 100), Johnsongrass",35%
same,pest or weed control at 250 g/ha,"johnsongrass [8]; 250 g ai/ha, postemergence, read-out: Plant response rating (0 to 100), Johnsongrass",85%
same,pest or weed control at 31 g/ha,"johnsongrass [8]; Postemergence, 31 g ai/ha, scale 0 to 100 (0 no effect, 100 complete control), 13 to 15 days, read-out: Plant response rating, Johnsongrass",15%
same,pest or weed control at 62 g/ha,"johnsongrass [8]; Postemergence, 62 g ai/ha, scale 0 to 100 (0 no effect, 100 complete control), read-out: Plant response rating, Johnsongrass",35%
same,pest or weed control at 125 g/ha,"yellow nutsedge [9]; 125 g ai/ha, postemergence, read-out: Plant response rating (0 to 100), Nutsedge, Yellow",5%
same,pest or weed control at 250 g/ha,"yellow nutsedge [9]; 250 g ai/ha, postemergence, read-out: Plant response rating (0 to 100), Nutsedge, Yellow",10%
same,pest or weed control at 31 g/ha,"yellow nutsedge [9]; Postemergence, 31 g ai/ha, scale 0 to 100 (0 no effect, 100 complete control), 13 to 15 days, read-out: Plant response rating, Nutsedge, Yellow",0%
same,pest or weed control at 62 g/ha,"yellow nutsedge [9]; Postemergence, 62 g ai/ha, scale 0 to 100 (0 no effect, 100 complete control), read-out: Plant response rating, Nutsedge, Yellow",5%
same,"Soybean plant response rating (crop injury, 0-100 scale) at 125 g/ha","soybean; 125 g ai/ha, postemergence, read-out: Plant response rating (0 to 100), Soybean",98%
same,"Soybean plant response rating (crop injury, 0-100 scale) at 250 g/ha","soybean; 250 g ai/ha, postemergence",98%
same,"Soybean plant response rating (crop injury, 0-100 scale) at 31 g/ha","soybean; Postemergence, 31 g ai/ha, scale 0 to 100 (0 no effect, 100 complete control), 13 to 15 days",75%
same,"Soybean plant response rating (crop injury, 0-100 scale) at 62 g/ha","soybean; Postemergence, 62 g ai/ha, scale 0 to 100 (0 no effect, 100 complete control)",85%
same,pest or weed control at 125 g/ha,"waterhemp; 125 g ai/ha, postemergence, read-out: Plant response rating (0 to 100), Waterhemp",90%
same,pest or weed control at 250 g/ha,"waterhemp; 250 g ai/ha, postemergence, read-out: Plant response rating (0 to 100), Waterhemp",98%
same,pest or weed control at 31 g/ha,"waterhemp; Postemergence, 31 g ai/ha, scale 0 to 100 (0 no effect, 100 complete control), 13 to 15 days, read-out: Plant response rating, Waterhemp",85%
same,pest or weed control at 62 g/ha,"waterhemp; Postemergence, 62 g ai/ha, scale 0 to 100 (0 no effect, 100 complete control), read-out: Plant response rating, Waterhemp",85%
same,pest or weed control at 125 g/ha,"chickweed; 125 g ai/ha, postemergence, read-out: Plant response rating (0 to 100), Chickweed",80%
same,pest or weed control at 250 g/ha,"chickweed; 250 g ai/ha, postemergence, read-out: Plant response rating (0 to 100), Chickweed",98%
same,pest or weed control at 31 g/ha,"chickweed; Postemergence, 31 g ai/ha, scale 0 to 100 (0 no effect, 100 complete control), 13 to 15 days, read-out: Plant response rating, Chickweed",40%
same,pest or weed control at 62 g/ha,"chickweed; Postemergence, 62 g ai/ha, scale 0 to 100 (0 no effect, 100 complete control), read-out: Plant response rating, Chickweed",70%
